Consider four molecules from patent US4128541A, “Pentapeptide with morphine- like activity” (American Home Products Corporation, priority 1976, dated 1978).

Experiment [1] has as its system rats. The experiment is described as follows: rat-tail flick method of D'Amour and Smith (analgesia). The class given is in vivo. The note with it: for Mean % Change ± SEM (latency, drug minus baseline) / Mean Latency ± SEM, Drug: injected into the lateral ventricle in Ringer's solution, 100 μg (morphine sulfate 10 μg). The method, then: In this test method, which is a standard test for analgesia, a light beam is focused on the tip of the rat's tail, and the pain threshold of the animal is measured by the latency of the rat to remove his tail from the noxious heat source. When tested by the rat-tail flick method by intracerebroventricular injection, according to the procedure of Belluzzi et al., Nature, 260, 625 (1976), the pentapeptide H-Tyr-Gly-Gly-Phe-Ser-OHproduced the effects set forth in Table I.
*All drugs were dissolved in […] of Ringer's solution and injected into
the lateral ventricle through permanently-indwelling cannulae.
*Subcutaneous in saline solution.

Experiment [2] has as its system guinea pig ileum. The settings on record: literature, Hughes et al.; cited from earlier work.
Another experiment deals with mouse vas deferens. The note with it: literature, Hughes et al.; cited from earlier work.
For experiment [3], the system named is rats. The note with it: injection in the brain ventricle in rats; fully reversible by naloxone; Beluzzi et al.; cited from earlier work.
The test system of experiment [4] is opiate receptor (3H-naloxone binding) in brain homogenates. The settings on record: literature; cited from earlier work.
Another experiment has as its system opiate receptors. The experiment is described as follows: binding to opiate receptors in vitro. The settings on record: effect blocked by naloxone.
The subject of experiment [5] is guinea pig ileum. In words: electrically-induced contraction of guinea pig ileum. The settings on record: effect blocked by naloxone. An excerpt:
Enkephalin, a natural opiate receptor agonist in brain, has been identified [see Hughes et al., Nature, 256, 577(1975)] as a mixture of two pentapeptides: H-Tyr-Gly-Gly-Phe-Met-OH (methionine-enkephalin) and H-Tyr-Gly-Gly-Phe-Leu-OH (leucine-enkephalin).

Experiment [6] concerns rats. The experiment is described as follows: rat-tail flick method of D'Amour and Smith (analgesia). The class given is in vivo. The settings on record: intravenous (i.v.) injection, 5 mg/kg. In general terms: Hot-plate and tail-flick tests time the reaction to a heat stimulus.
[7] abbreviates: rat-tail flick, 10 mg/kg subcutaneous in saline solution.

Ends that are not written are not given here.

With `CSCC[C@H](NC(=O)[C@H](Cc1ccccc1)NC(=O)CNC(=O)CNC(=O)[C@@H](N)Cc1ccc(O)cc1)C(=O)O` [Methionine-Enkephalin, H-Tyr-Gly-Gly-Phe-Met-OH], in the experiment on rats [1] (rat-tail flick), the “Mean % Change ± SEM (latency, drug minus baseline)” value was determined as 37.2% and the “Mean Latency ± SEM, Drug” value came to 5.19. The “block of electrically evoked contractions of guinea pig ileum (in words)” value with guinea pig ileum [2] is “mimic the ability of morphine to block”. The “block of electrically evoked contractions of mouse vas deferens (in words)” value with mouse vas deferens is listed as “mimic the ability of morphine to block”. The “analgesia (in words)” value with rats [3] was “profound analgesia”. Besides, the “inhibition of stereospecific receptor binding of 3H-naloxone (in words)” value in experiment [4] is on record as “inhibit”.

For `CN1CC[C@]23c4c5ccc(O)c4O[C@H]2[C@@H](O)C=C[C@H]3[C@H]1C5.O=S(=O)(O)O` [Morphine Sulfate], in the experiment on rats [1] (rat-tail flick), the “Mean % Change ± SEM (latency, drug minus baseline)” value came to 65.4% and the “Mean Latency ± SEM, Drug” value is reported as 6.59.

With “H-Tyr-Gly-Gly-Phe-Leu-OH [leucine-enkephalin]”, the “block of electrically evoked contractions of guinea pig ileum (in words)” value in the experiment on guinea pig ileum [2] is “mimic the ability of morphine to block”. Moreover, the “block of electrically evoked contractions of mouse vas deferens (in words)” value with mouse vas deferens is “mimic the ability of morphine to block”. In addition, the “analgesia (in words)” value with rats [3] was “profound analgesia”. Moreover, the “inhibition of stereospecific receptor binding of 3H-naloxone (in words)” value in experiment [4] is on record as “inhibit”.

As to “YGGFS [H-Tyr-Gly-Gly-Phe-Ser-OH, L-Tyrosyl-Glycyl-Glycyl-L-Phenylalanyl-L-Serine]”, the “pain threshold (in words)” value with rats [1] (injection into the lateral brain ventricle, significant difference versus vehicle) is given as “increase in pain threshold”. For the same molecule, in the experiment on rats [1] (setting [7]), the “Mean % Change ± SEM (latency)” value worked out at 26.16 ± 14.36% and the “Mean Latency ± SEM, Pentapeptide” value came to 5.15 ± 0.60. Moreover, in the experiment on rats [1] (rat-tail flick), the “Mean % Change ± SEM (latency, drug minus baseline)” value was 39.25% and the “Mean Latency ± SEM, Drug” value is 5.77. In the experiment on rats [1] (subcutaneous (s.c.) injection, 10 mg/kg in saline), the “analgesic effect (in words)” value was “weak analgesic effect”. In the experiment on opiate receptors, the “binding to opiate receptors in vitro (in words)” value is on record as “weak binding”. In the experiment on guinea pig ileum [5], the “block of electrically-induced contraction of guinea pig ileum (in words)” value is “blocks”. Besides, the “analgesic activity (in words)” value in the experiment with rats [6] is recorded as “no analgesic activity”.
